Patent US10815210B2, “Benzocyclobutane derivatives useful as dual SGLT1 / SGLT2 modulators” (Janssen Pharmaceutica NV, priority 2016, dated 2020)

Tests used:
human SGLT1 = molecular target: T1, human SGLT1 (Homo sapiens, UniProt P13866); experiment: SGLT1 assay: Na-dependent 14C-AMG uptake in CHO-K1 cells stably expressing human SGLT1; format: cell-based; details: for IC50: 500 μM AMG, 2 hours at 37° C.
T1 construct: expressed in transfected cells; host or cells: CHO-K1
T1 sequence (P13866 1-664): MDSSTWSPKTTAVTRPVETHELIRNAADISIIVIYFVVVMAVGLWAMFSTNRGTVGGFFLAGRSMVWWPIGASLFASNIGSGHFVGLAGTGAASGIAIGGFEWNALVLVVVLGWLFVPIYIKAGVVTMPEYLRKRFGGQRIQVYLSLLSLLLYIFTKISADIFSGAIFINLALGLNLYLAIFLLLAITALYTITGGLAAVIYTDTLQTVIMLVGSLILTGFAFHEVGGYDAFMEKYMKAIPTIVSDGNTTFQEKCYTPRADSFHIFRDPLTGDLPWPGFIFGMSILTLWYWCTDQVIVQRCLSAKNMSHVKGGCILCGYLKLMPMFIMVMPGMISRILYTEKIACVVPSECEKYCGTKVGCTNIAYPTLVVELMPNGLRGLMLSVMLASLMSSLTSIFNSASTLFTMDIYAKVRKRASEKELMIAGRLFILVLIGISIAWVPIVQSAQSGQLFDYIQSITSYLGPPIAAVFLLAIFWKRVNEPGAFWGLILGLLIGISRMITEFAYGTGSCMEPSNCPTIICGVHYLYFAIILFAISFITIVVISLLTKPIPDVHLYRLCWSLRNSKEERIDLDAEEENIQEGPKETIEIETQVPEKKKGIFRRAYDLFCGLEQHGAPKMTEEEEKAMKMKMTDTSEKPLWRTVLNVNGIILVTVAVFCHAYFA
Method: (§1) SGLT1 and SGLT2 were cloned in form of cDNA from human small intestine (Genbank M24847), and from human kidney (Genbank M95549), respectively. Subsequently, each full cDNA was subcloned into pcDNA with each construct's integrity verified through follow-on sequencing. To generate CHO-K1 cells that stably express human SGLT1 or human SGLT2, CHO-K1 cells were transfected using DMRIE-C reagent (Life Technologies, Gaithersburg, Md.). Transfected cells were then selected in the presence of 500 μg/ml of the Geneticin (G418 Cellgro Catalog No. 30234-CI)
(§2) Individual clones were then characterized using the following cell-based assay for sodium-dependent glucose transport:
(§3) Inhibition of SGLT1 and SGLT2 activity was assessed in CHO K1 cells stably expressing either human SGLT1 or SGLT2, using the SGLT specific glucose analog methyl-glucopyranoside (Sigma Catalog No. M-9376). Cells were plated (45,000 cells/well) in white wall 96-well plates (COSTAR, Cat#3903) for 24 hours in growth medium, then a final concentration of 10 mM Na-Butyrate (ALDRICH Cat#30341-0) was added. The cells were incubated for 24 hours. On the day of the assay, cells were rinsed and treated with test compounds (at concentrations of 0.001 μM to 10 μM) in assay buffer (50 mM HEPES, 20 mM Tris base, 5 mM KCl, 1 mM MgCl2, 1 mM CaCl2 and 137 mM NaCl, pH 7.4) for 10 minutes. Cells were then incubated with ^14C-a-methyl-d-glucopyranoside (AMG, Amersham Catalog No. CFB 76), using 0.07 μCi per well in 500 μM AMG final concentration. The cells were incubated for 2 hours at 37° C. with 5% CO2 and washed two times with ice-cold Phosphate Buffer Solution (Cellgro Catalog No. 21030-CV). The cells were then solubilized by adding 60 μl of MICROSCINT™20 and the Na-dependent ^14C-AMG uptake was quantified by measuring radioactivity. Plates were counted in a TopCount (Packard, Meriden, Conn.)

human SGLT2 = molecular target: T2, human SGLT2 (Homo sapiens, UniProt P31639); experiment: SGLT2 assay: Na-dependent 14C-AMG uptake in CHO-K1 cells stably expressing human SGLT2; format: cell-based; details: for IC50: 500 μM AMG, 2 hours at 37° C.
T2 construct: expressed in transfected cells; host or cells: CHO-K1
T2 sequence (P31639 1-672): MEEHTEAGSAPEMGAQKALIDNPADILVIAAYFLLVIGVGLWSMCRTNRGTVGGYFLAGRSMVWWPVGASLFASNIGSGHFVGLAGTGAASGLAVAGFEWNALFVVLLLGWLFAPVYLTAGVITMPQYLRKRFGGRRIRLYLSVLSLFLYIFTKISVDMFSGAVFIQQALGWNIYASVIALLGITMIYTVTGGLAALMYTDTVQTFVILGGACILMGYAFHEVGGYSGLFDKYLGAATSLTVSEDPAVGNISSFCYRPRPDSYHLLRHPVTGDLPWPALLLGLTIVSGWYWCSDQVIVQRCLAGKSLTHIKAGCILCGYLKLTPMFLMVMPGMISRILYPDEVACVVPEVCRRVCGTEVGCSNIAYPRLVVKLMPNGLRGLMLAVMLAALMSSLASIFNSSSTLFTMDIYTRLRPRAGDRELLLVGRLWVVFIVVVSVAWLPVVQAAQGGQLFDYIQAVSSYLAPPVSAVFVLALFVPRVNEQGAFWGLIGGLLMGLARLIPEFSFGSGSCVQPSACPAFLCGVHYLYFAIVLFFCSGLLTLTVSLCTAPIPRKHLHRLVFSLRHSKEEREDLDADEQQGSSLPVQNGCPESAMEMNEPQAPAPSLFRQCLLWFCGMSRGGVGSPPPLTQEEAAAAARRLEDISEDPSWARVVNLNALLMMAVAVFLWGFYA
Method: as §1, §2, §3

inhibition at 0.3 µM (human SGLT1) [%] | inhibition at 0.03 µM (human SGLT2) [%] | IC50 (human SGLT1) [nM] | IC50 (human SGLT2) [nM] | SMILES
5 | 58 |  |  | COc1ccc(Cc2ccc3c(c2)CC3)cc1[C@@H]1O[C@H](CO)[C@@H](O)[C@H](O)[C@H]1O [Compound 26, (2S,3R,4R,5S,6R)-2-(5-(bicyclo[4.2.0]octa-1(6),2,4-trien-3-ylmethyl)-2-methoxyphenyl)-6-(hydroxymethyl)oxane-3,4,5-triol]
 |  | 140 | 3 | [2H]C([2H])(c1ccc2c(c1)CC2)c1cc([C@@H]2O[C@H](CO)[C@@H](O)[C@H](O)[C@H]2O)c(OC)cc1OC (single isomer, unassigned) [Compound 59]
 |  | 84 | 1 | [2H]C1([2H])Cc2ccc(Cc3cc([C@@H]4O[C@H](CO)[C@@H](O)[C@H](O)[C@H]4O)c(OC)cc3C)cc21 [Compound 63, (2S,3R,4R,5S,6R)-2-(5-((2,2-dideuterium-1,2-dihydrocyclobutabenzen-4-yl)methyl)-2-methoxy-4-methylphenyl)-6-(hydroxymethyl)-tetrahydro-2H-pyran-3,4,5-triol]
 |  | 12 | 2 | OC[C@H]1O[C@@H](c2cc(Cc3ccc4c(c3)CC4)c(Cl)cc2O)[C@H](O)[C@@H](O)C1(F)F [Compound 102]
 |  | 4 | 1 | [2H]C([2H])(c1ccc2c(c1)CC2)c1cc([C@@H]2O[C@H](CO)[C@@H](O)[C@H](O)[C@H]2O)c(O)cc1C (single isomer, unassigned) [Compound 52]
 |  | 52 | 4 | Cc1ccc([C@@H]2O[C@H](CO)[C@@H](F)[C@H](O)[C@H]2O)cc1Cc1ccc2c(c1)CC2 [Compound 126]
 |  | 48 | 1 | COc1cc(C)c(Cc2ccc3c(c2)CC3)cc1[C@@H]1O[C@H](CO)[C@@H](O)[C@H](O)[C@H]1O [Compound 7, (2S,3R,4R,5S,6R)-2-(5-((1,2-dihydrocyclobutabenzen-4-yl)methyl)-2-methoxy-4-methylphenyl)-6-(hydroxymethyl)-tetrahydro-2H-pyran-3,4,5-triol]
 |  | 149 | 1 | OC[C@H]1O[C@@H](c2cc(Cc3ccc4c(c3)CC4)c(Cl)cc2OCF)[C@H](O)[C@@H](O)[C@@H]1O [Compound 40, (2S,3R,4R,5S,6R)-2-(4-chloro-5-((1,2-dihydrocyclobutabenzen-4-yl)methyl)-2-(fluoromethoxy)phenyl)-6-(hydroxymethyl)-tetrahydro-2H-pyran-3,4,5-triol]
 |  | 11 | 2 | [2H]c1c(C)c(Cc2ccc3c(c2)CC3)cc([C@@H]2O[C@H](CO)[C@@H](O)[C@H](O)[C@H]2O)c1O (single isomer, unassigned) [Compound 121]
20 | 78 |  |  | COc1cc(OC(F)F)c([C@@H]2O[C@H](CO)[C@@H](O)[C@H](O)[C@H]2O)cc1Cc1ccc2c(c1)CC2 [Compound 38, (2S,3R,4R,5S,6R)-2-(2-(difluoromethoxy)-5-((1,2-dihydrocyclobutabenzen-4-yl)methyl)-4-methoxyphenyl)-6-(hydroxymethyl)-tetrahydro-2H-pyran-3,4,5-triol]
 |  | 133 | 23 | Cc1ccc([C@@H]2O[C@H](CO)[C@@H](F)[C@H](O)[C@H]2O)cc1C(F)(F)c1ccc2c(c1)CC2 [Compound 142]
 |  | 13 | 2 | COc1cc(Cl)c(Cc2ccc3c(c2)CC3)cc1[C@@H]1O[C@H](CO)C(F)(F)[C@H](O)[C@H]1O [Compound 103]
 |  | 92 | 3 | Cc1cc(F)c([C@@H]2O[C@H](CO)[C@@H](O)[C@H](O)[C@H]2O)cc1Cc1ccc2c(c1)CC2 [Compound 29, (2S,3R,4R,5S,6R)-2-(5-[bicyclo[4.2.0]octa-1,3,5-trien-3-ylmethyl]-2-fluoro-4-methylphenyl)-6-(hydroxymethyl)oxane-3,4,5-triol]
24 | 72 |  |  | COc1cc(OC(F)(F)F)c([C@@H]2O[C@H](CO)[C@@H](O)[C@H](O)[C@H]2O)cc1Cc1ccc2c(c1)CC2 [Compound 34, (2S,3R,4R,5S,6R)-2-(5-((1,2-dihydrocyclobutabenzen-4-yl)methyl)-4-methoxy-2-(trifluoromethoxy)phenyl)-6-(hydroxymethyl)-tetrahydro-2H-pyran-3,4,5-triol]
 |  | 27 | 13 | Cc1cc(OCF)c([C@@H]2O[C@H](CO)[C@@H](O)[C@H](O)[C@H]2O)cc1Cc1ccc2c(c1)CC2 [Compound 39, (2S,3R,4R,5S,6R)-2-(5-[bicyclo[4.2.0]octa-1(6),2,4-trien-3-ylmethyl]-2-(fluoromethoxy)-4-methylphenyl)-6-(hydroxymethyl)oxane-3,4,8-triol]
 |  | 25 | 2 | [2H]C([2H])(c1ccc2c(c1)CC2)c1cc([C@@H]2O[C@H](CO)[C@@H](O)[C@H](O)[C@H]2O)ccc1CC [Compound 58, (2S,3R,4R,5S,6R)-2-(3-[bicyclo[4.2.0]octa-(6),2,4-trien-3-yl(dideuterium)methyl]-4-ethylphenyl)-6-(hydroxymethyl)oxane-3,4,5-triol]
 |  | 29 | 1 | Cc1cc(Cc2ccc3c(c2)CC3)cc([C@@H]2O[C@H](CO)[C@@H](O)[C@H](O)[C@H]2O)c1O [Compound 27, (2S,3R,4R,5S,6R)-2-(5-((1,2-dihydrocyclobutabenzen-4-yl)methyl)-2-hydroxy-3-methylphenyl)-6-(hydroxymethyl)-tetrahydro-2H-pyran-3,4,5-triol]
26 | 84 |  |  | Cc1cc(OC(F)F)c([C@@H]2O[C@H](CO)[C@@H](O)[C@H](O)[C@H]2O)cc1Cc1ccc2c(c1)CC2 [Compound 36, 2S,3R,4R,5S,6R)-2-(5-([bicyclo[4.2.0]octa-1(6),2,4-trien-3-ylmethyl]-2-(difluoromethoxy)-4-methylphenyl)-6-(hydroxymethyl)oxane-3,4,5-triol]
 |  | 106 | 18 | COc1cc(OCF)c([C@@H]2O[C@H](CO)[C@@H](O)[C@H](O)[C@H]2O)cc1Cc1ccc2c(c1)CC2 [Compound 41, (2S,3R,4R,5S,6R)-2-(5-((1,2-dihydrocyclobutabenzen-4-yl)methyl)-2-(fluoromethoxy)-4-methoxyphenyl)-6-(hydroxymethyl)-tetrahydro-2H-pyran-3,4,5-triol]
 |  | 32 | 5 | OC[C@H]1O[C@@H](c2ccc(C3CC3)c(Cc3ccc4c(c3)CC4)c2)[C@H](O)[C@@H](O)[C@@H]1O [Compound 5, (2S,3R,4R,5S,6R)-2-(4-cyclopropyl-3-((1,2-dihydrocyclobutabenzen-4-yl)methyl)phenyl)-6-(hydroxymethyl)-tetrahydro-2H-pyran-3,4,5-triol]
